Measured values reported in ChEMBL document CHEMBL1131205, “Rational design and synthesis of novel, potent bis-phenylamidine carboxylate factor Xa inhibitors” (J Med Chem, 1998).

Tests used:
Coagulation factor X = Coagulation factor X (Homo sapiens, UniProt P00742); test: In vitro inhibition of Coagulation factor X
Prothrombin = Prothrombin (Homo sapiens, UniProt P00734); test: In vitro inhibition of thrombin
Serine protease 1 = Serine protease 1 (Homo sapiens, UniProt P07477); test: In vitro inhibition of trypsin
Sequence of Serine protease 1 (P07477 whole entry): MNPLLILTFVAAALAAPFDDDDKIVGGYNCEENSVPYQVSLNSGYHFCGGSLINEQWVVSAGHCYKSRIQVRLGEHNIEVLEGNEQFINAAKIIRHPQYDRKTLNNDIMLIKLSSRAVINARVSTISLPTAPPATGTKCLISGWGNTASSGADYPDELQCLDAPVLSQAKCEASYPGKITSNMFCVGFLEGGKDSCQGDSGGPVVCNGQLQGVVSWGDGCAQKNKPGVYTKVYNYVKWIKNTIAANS

Sequence of Coagulation factor X (P00742 41-179 limits assumed): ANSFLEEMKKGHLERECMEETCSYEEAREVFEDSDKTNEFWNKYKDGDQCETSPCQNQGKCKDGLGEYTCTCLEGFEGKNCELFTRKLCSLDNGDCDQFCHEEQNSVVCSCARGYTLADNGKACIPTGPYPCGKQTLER
Sequence of Coagulation factor X (P00742 235-488 limits assumed): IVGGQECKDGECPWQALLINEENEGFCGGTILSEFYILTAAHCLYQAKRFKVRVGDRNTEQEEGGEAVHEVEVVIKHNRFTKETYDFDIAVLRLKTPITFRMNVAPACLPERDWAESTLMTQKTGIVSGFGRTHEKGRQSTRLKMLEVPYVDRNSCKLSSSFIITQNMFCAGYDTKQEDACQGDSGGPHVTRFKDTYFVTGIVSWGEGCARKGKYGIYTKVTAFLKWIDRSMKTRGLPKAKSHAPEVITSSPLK

Row | Ki (Coagulation factor X) | Ki (Prothrombin) | Ki (Serine protease 1) | SMILES
1 | 2.4 µM | 12.6 µM |  | COC(=O)CNC(=O)CC(CCc1ccc(C(=N)N)cc1)c1cccc(C(=N)N)c1 (centres undefined)
2 | 0.042 µM | 1.1 µM | 0.11 µM | CCOC(=O)CC(CCc1ccc(C(=N)N)cc1)c1cccc(C(=N)N)c1 (centres undefined)
3 | 0.55 µM | 6.5 µM | 0.87 µM | COC(=O)CC(CCc1ccc(C(N)=O)cc1)c1cccc(C(=N)N)c1 (centres undefined)
4 | 2.8 µM | 3.6 µM | 0.33 µM | COC(=O)CC(CCc1ccc(C(=O)OC)cc1)c1cccc(C(=N)N)c1 (centres undefined)
5 | 0.009 µM | 3.1 µM | 0.096 µM | COC(=O)CC(CCc1ccc(N=C(N)N)cc1)c1cccc(C(=N)N)c1 (centres undefined)
6 | 2.8 µM | 8.5 µM |  | COC(=O)CC(CCc1cccc(C(=N)N)c1)c1cccc(C(=N)N)c1 (centres undefined)
7 | 0.94 µM | 8 µM | 0.82 µM | CNC(=O)CC(CCc1ccc(C(=N)N)cc1)c1cccc(C(=N)N)c1 (centres undefined)
8 | 22.9 µM | 1.2 µM |  | CCOC(=O)CC(CCc1ccc(C(=N)N)cc1)c1ccc(C(=N)N)cc1 (centres undefined)
9 | 0.034 µM | 1.2 µM | 0.099 µM | COC(=O)CC(CCc1ccc(C(=N)N)cc1)c1cccc(C(=N)N)c1 (centres undefined)
10 | 5 µM | 7.7 µM | 1.2 µM | COC(=O)CC(CCc1ccc(N)cc1)c1cccc(C(=N)N)c1 (centres undefined)
11 | 5.1 µM | 4.4 µM |  | N=C(N)c1ccc(CCC(=O)c2cccc(C(=N)N)c2)cc1
12 | 1.15 µM | 2.8 µM | 0.44 µM | N=C(N)c1ccc(CCC(CC(=O)N2CCCC2)c2cccc(C(=N)N)c2)cc1 (centres undefined)
13 | 1.64 µM | 3.43 µM |  | CCOC(=O)CC(CCc1cccc(C(=N)N)c1)c1ccc(C(=N)N)cc1 (centres undefined)
14 | > 30 µM | 6.2 µM |  | CCOC(=O)CC(CCc1ccc(C(=N)N)cc1)c1ccccc1 (centres undefined)
15 |  | > 4.2 µM | > 1.2 µM | N=C(N)c1ccc(CCC(CC(=O)O)c2cccc(C(=N)N)c2)cc1 (centres undefined)
16 | 2.4 µM | 19.6 µM |  | CONC(=O)CC(CCc1ccc(C(=N)N)cc1)c1cccc(C(=N)N)c1 (centres undefined)
17 | 1.1 µM | 1.75 µM | 0.61 µM | COC(=O)CC(CCc1ccc(NS(=O)(=O)c2ccccc2)cc1)c1cccc(C(=N)N)c1 (centres undefined)
18 | 0.057 µM | 3.3 µM | 0.76 µM | COC(=O)CC(CCCCc1ccc(N=C(N)N)cc1)c1cccc(C(=N)N)c1 (centres undefined)
19 | 2.9 µM | > 2.1 µM |  | CCOC(=O)CC(CCc1ccccc1)c1cccc(C(=N)N)c1 (centres undefined)
20 | 0.654 µM | 3.1 µM | 0.11 µM | COC(=O)CC(CCc1ccc(NS(C)(=O)=O)cc1)c1cccc(C(=N)N)c1 (centres undefined)
21 | 0.192 µM | 1.54 µM | 0.14 µM | CC(C)OC(=O)CC(CCc1ccc(C(=N)N)cc1)c1cccc(C(=N)N)c1 (centres undefined)
